Like-named read-outs stand apart in the source and are kept apart here.
What was measured:
Type in all cases: biochemical
CDK2/CCNE1 = CDK2/CCNE1 (Homo sapiens, UniProt P24941); assay: CDK2 homogeneous time-resolved fluorescence (HTRF) kinase assay; settings: CDK2/CCNE
How it was run: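 An HTRF format measures CDK2/CCNE1 (3 nM) phosphorylating a 4E-BP1 Thr37/46 peptide at high (1 mM) ATP. Reactions run one hour at 23 °C, then EDTA-quenched and probed with Eu-labelled phospho-specific antibody.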

CDK6/CCND1 = CDK6/CCND1 (Homo sapiens, UniProt Q00534); assay: CDK6 homogeneous time-resolved fluorescence (HTRF) kinase assay; settings: CDK6/CCND
How it was run: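 Recombinant CDK6/CCND1 (1 nM final) was preincubated with compound for 20 min at 23 °C in HEPES buffer with MgCl2, EGTA, DTT and Tween 20. Kinase reaction then ran 60 min at 23 °C with 1 mM ATP and 50 nM ULight-4E-BP1 (Thr37/46) peptide, and was stopped with EDTA.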

CDK4/CCND3 = CDK4/CCND3 (Homo sapiens, UniProt P11802); assay: CDK4 homogeneous time-resolved fluorescence (HTRF) kinase assay; settings: CDK4/CCND
How it was run: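 IC50 values were derived from 11-point half-log dilutions, usually starting at 10 μM. Compound was first held for 20 min at 23 °C with 1.5 nM CDK4/CCND3. 1 mM ATP and 50 nM ULight-eIF4E-BP1 (Thr37/46) substrate were then added for 60 min, and the TR-FRET 665 nm signal was measured after EDTA stop and Eu-anti-phospho-4E-BP1 detection.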

CDK1/CCNB1 = CDK1/CCNB1 (Homo sapiens, UniProt P06493); assay: CDK1 homogeneous time-resolved fluorescence (HTRF) kinase assay; settings: CDK1/CCNB
How it was run: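 High-ATP (1 mM) HTRF assay with 0.5 nM CDK1/cyclin B1 and 50 nM ULight-4E-BP1 (Thr37/46) substrate, 60 min at 23 °C after 20-min compound preincubation. IC50 values come from dose-response curves.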

[1] = 25-250 nM marked x, read-out: CDK2/CCNE IC50 25-250 nM
[2] = >250 nM marked x, read-out: CDK6/CCND IC50 >250 nM
[3] = >250 nM marked x, read-out: CDK4/CCND IC50 >250 nM
[4] = >250 nM marked x, read-out: CDK1/CCNB IC50 >250 nM
[5] = <25 nM, read-out: CDK2/CCNE IC50 <25 nM
[6] = <25 nM, read-out: CDK6/CCND IC50 <25 nM
[7] = <25 nM, read-out: CDK4/CCND IC50 <25 nM
[8] = 25-250 nM marked x, read-out: CDK1/CCNB IC50 25-250 nM
[9] = x = IC50 <25 nM, read-out: CDK2/CCNE IC50 (<25 nM)
[10] = x = IC50 25-250 nM, read-out: CDK6/CCND IC50 (25-250 nM)
[11] = x = IC50 >250 nM, read-out: CDK4/CCND IC50 (>250 nM column)
[12] = x = IC50 >250 nM, read-out: CDK1/CCNB IC50 (>250 nM column)
[13] = x = IC50 >250 nM, read-out: CDK6/CCND IC50 (>250 nM column)
[14] = x = IC50 25-250 nM, read-out: CDK1/CCNB IC50 (25-250 nM)
[15] = 25-250 nM marked x, read-out: CDK6/CCND IC50 25-250 nM
[16] = 25-250 nM marked x, read-out: CDK4/CCND IC50 25-250 nM
[17] = x = IC50 25-250 nM, read-out: CDK4/CCND IC50 (25-250 nM)
[18] = <25 nM, read-out: CDK2/CCNE IC50, <25 nM
[19] = >250 nM, 1 mM ATP, read-out: CDK6/CCND IC50, >250 nM
[20] = 25-250 nM, read-out: CDK4/CCND IC50, 25-250 nM
[21] = >250 nM, read-out: CDK1/CCNB IC50 >250 nM
[22] = 25-250 nM, read-out: CDK2/CCNE IC50, 25-250 nM
[23] = >250 nM, read-out: CDK4/CCND IC50, >250 nM

Chain of CDK1/CCNB1 (P06493 whole entry): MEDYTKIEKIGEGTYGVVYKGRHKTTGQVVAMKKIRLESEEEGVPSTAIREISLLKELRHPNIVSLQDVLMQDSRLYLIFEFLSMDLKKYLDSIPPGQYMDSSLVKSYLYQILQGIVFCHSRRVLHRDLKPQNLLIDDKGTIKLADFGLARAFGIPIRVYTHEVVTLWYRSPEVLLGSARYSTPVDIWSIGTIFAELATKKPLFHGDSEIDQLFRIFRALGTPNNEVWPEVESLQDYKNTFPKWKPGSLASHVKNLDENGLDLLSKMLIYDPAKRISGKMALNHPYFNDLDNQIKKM
Chain of CDK1/CCNB1 (P14635 whole entry partner): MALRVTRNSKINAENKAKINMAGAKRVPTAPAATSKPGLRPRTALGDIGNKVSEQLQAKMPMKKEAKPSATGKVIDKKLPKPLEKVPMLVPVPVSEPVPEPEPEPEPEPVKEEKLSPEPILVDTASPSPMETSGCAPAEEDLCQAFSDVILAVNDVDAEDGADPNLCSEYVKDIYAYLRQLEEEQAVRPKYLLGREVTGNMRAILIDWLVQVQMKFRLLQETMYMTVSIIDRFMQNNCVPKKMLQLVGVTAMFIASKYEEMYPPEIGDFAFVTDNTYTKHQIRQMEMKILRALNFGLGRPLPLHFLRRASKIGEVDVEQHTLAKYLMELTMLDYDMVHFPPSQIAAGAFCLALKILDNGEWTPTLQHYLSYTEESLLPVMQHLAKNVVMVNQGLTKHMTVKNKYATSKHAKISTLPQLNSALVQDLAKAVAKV
Chain of CDK4/CCND3 (P11802 whole entry): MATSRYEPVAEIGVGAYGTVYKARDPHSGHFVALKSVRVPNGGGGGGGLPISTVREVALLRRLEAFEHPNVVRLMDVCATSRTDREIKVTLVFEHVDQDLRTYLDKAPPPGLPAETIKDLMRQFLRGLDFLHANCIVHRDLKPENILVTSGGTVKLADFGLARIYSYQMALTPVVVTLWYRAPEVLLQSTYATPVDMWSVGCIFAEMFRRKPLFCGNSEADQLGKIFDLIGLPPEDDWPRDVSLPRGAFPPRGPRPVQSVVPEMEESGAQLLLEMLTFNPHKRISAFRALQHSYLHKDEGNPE
Chain of CDK4/CCND3 (P30281 whole entry partner): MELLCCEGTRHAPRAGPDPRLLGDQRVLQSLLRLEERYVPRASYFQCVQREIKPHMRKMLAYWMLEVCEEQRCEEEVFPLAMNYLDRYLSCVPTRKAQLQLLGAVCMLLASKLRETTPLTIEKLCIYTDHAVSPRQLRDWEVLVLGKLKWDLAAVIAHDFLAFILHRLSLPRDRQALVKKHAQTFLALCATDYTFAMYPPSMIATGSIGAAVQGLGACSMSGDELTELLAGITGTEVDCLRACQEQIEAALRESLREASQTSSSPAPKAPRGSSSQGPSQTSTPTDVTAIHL
Chain of CDK6/CCND1 (Q00534 whole entry): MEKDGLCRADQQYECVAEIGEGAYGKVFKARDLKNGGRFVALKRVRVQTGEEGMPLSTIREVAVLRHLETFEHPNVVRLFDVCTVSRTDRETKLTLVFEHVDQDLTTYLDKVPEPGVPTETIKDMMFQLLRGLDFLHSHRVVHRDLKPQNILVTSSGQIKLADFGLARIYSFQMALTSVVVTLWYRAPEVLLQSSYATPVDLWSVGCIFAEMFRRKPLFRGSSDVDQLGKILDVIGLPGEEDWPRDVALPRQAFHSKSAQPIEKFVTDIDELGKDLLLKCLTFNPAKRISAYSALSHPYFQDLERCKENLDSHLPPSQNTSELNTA
Chain of CDK6/CCND1 (P24385 whole entry partner): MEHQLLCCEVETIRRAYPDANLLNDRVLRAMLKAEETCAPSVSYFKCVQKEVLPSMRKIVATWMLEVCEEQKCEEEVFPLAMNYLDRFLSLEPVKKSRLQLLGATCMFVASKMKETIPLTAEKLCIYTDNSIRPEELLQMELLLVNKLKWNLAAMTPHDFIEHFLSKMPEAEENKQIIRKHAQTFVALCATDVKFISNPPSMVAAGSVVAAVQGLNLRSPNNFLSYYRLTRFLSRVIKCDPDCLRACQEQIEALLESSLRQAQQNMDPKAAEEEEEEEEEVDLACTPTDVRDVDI

CCC1(CC)C(=O)Nc2cc(C#Cc3nccc4cnc(Nc5ccc(S(=N)(=O)C6COC6)cc5OC)cc34)ccc21 (single isomer, unassigned) [Ex 317, 3,3-diethyl-6-((7-((2-methoxy-4-(oxetane-3-sulfonimidoyl)phenyl)amino)-2,6-naphthyridin-1-yl)ethynyl)indolin-2-one]
IC50 (CDK2/CCNE1; [1]): 25 to 250 nM
IC50 (CDK6/CCND1; [2]): > 250 nM
IC50 (CDK4/CCND3; [3]): > 250 nM
IC50 (CDK1/CCNB1; [4]): > 250 nM

CS(=O)(=O)N1CCC(Nc2cc3c(N4CCCCC4)nc(C=O)cc3cn2)CC1 [Example 18, 7-((1-(methylsulfonyl)piperidin-4-yl)amino)-1-(piperidin-1-yl)-2,6-naphthyridine-3-carbaldehyde]
IC50 (CDK2/CCNE1; [5]): < 25 nM
IC50 (CDK6/CCND1; [6]): < 25 nM
IC50 (CDK4/CCND3; [7]): < 25 nM
IC50 (CDK1/CCNB1; [8]): 25 to 250 nM

Cc1c(-c2nccc3cnc(Nc4ccc(S(C)(=N)=O)cc4)cc23)ccc2nn(C)cc12 (single isomer, unassigned) [Example 545, (4-((5-(2,4-dimethyl-2H-indazol-5-yl)-2,6-naphthyridin-3-yl)amino)phenyl)(imino)(methyl)-λ^6-sulfanone]
IC50 (CDK2/CCNE1; [9]): < 25 nM
IC50 (CDK6/CCND1; [10]): 25 to 250 nM
IC50 (CDK4/CCND3; [11]): > 250 nM
IC50 (CDK1/CCNB1; [12]): > 250 nM

Cc1cc(S(C)(=O)=O)ccc1Nc1cc2c(C#Cc3ccc4c(c3)NC(=O)C4(C)C)nccc2cn1 [Ex 424, 3,3-dimethyl-6-((7-((2-methyl-4-(methylsulfonyl)phenyl)amino)-2,6-naphthyridin-1-yl)ethynyl)indolin-2-one]
IC50 (CDK2/CCNE1; [9]): < 25 nM
IC50 (CDK6/CCND1; [13]): > 250 nM
IC50 (CDK4/CCND3; [11]): > 250 nM
IC50 (CDK1/CCNB1; [14]): 25 to 250 nM

CC(C)S(=N)(=O)c1ccc(Nc2cc3c(C#Cc4ccc5c(c4)NC(=O)C5(C)CCO)nccc3cn2)cc1 (single isomer, unassigned) [Example 271, 3-(2-hydroxyethyl)-3-methyl-6-((7-((4-(propan-2-ylsulfonimidoyl)phenyl)amino)-2,6-naphthyridin-1-yl)ethynyl)indolin-2-one]
IC50 (CDK2/CCNE1; [5]): < 25 nM
IC50 (CDK6/CCND1; [15]): 25 to 250 nM
IC50 (CDK4/CCND3; [16]): 25 to 250 nM
IC50 (CDK1/CCNB1; [8]): 25 to 250 nM

CC1(C)C(=O)Nc2cc(C#Cc3nccc4cnc(Nc5ccc(S(C)(=N)=O)cc5)cc34)ccc21 (single isomer, unassigned) [Ex 451, 3,3-dimethyl-6-((7-((4-(S-methylsulfonimidoyl)phenyl)amino)-2,6-naphthyridin-1-yl)ethynyl)indolin-2-one]
IC50 (CDK2/CCNE1; [9]): < 25 nM
IC50 (CDK6/CCND1; [13]): > 250 nM
IC50 (CDK4/CCND3; [17]): 25 to 250 nM
IC50 (CDK1/CCNB1; [14]): 25 to 250 nM

Cc1c(-c2nccc3cnc(Nc4ccc(S(C)(=O)=O)c(O)c4)cc23)ccc2c1cnn2CCO [Ex 616, 5-((5-(1-(2-hydroxyethyl)-4-methyl-1H-indazol-5-yl)-2,6-naphthyridin-3-yl)amino)-2-(methylsulfonyl)phenol]
IC50 (CDK2/CCNE1; [9]): < 25 nM
IC50 (CDK6/CCND1; [10]): 25 to 250 nM
IC50 (CDK4/CCND3; [17]): 25 to 250 nM
IC50 (CDK1/CCNB1; [12]): > 250 nM

Cc1c(-c2nccc3cnc(Nc4ccc(=O)n(C)n4)cc23)ccc2c1cnn2CC(C)(C)O [Ex 932, 6-((5-(1-(2-hydroxy-2-methylpropyl)-4-methyl-1H-indazol-5-yl)-2,6-naphthyridin-3-yl)amino)-2-methylpyridazin-3(2H)-one]
IC50 (CDK2/CCNE1; [18]): < 25 nM
IC50 (CDK6/CCND1; [19]): > 250 nM
IC50 (CDK4/CCND3; [20]): 25 to 250 nM
IC50 (CDK1/CCNB1; [21]): > 250 nM

Cc1c(-c2nccc3cnc(Nc4ccc(NS(=O)(=O)c5cccc6nn(C)cc56)cc4)cc23)ccc2c1cnn2CC(C)(C)O [Ex 820, N-(4-((5-(1-(2-hydroxy-2-methylpropyl)-4-methyl-1H-indazol-5-yl)-2,6-naphthyridin-3-yl)amino)phenyl)-2-methyl-2H-indazole-4-sulfonamide]
IC50 (CDK2/CCNE1; [22]): 25 to 250 nM
IC50 (CDK6/CCND1; [19]): > 250 nM
IC50 (CDK4/CCND3; [23]): > 250 nM
IC50 (CDK1/CCNB1; [21]): > 250 nM

CS(=O)(=O)c1ccc(Nc2cc3c(C#CC4CC4)nccc3cn2)cc1 [Ex 214, 5-(cyclopropylethynyl)-N-(4-(methylsulfonyl)phenyl)-2,6-naphthyridin-3-amine]
IC50 (CDK2/CCNE1; [5]): < 25 nM
IC50 (CDK6/CCND1; [15]): 25 to 250 nM
IC50 (CDK4/CCND3; [16]): 25 to 250 nM
IC50 (CDK1/CCNB1; [4]): > 250 nM

COc1cc(NS(=O)(=O)c2ccc(Nc3cc4c(-c5ccc6c(cnn6CC(O)(C(F)(F)F)C(F)(F)F)c5C)nccc4cn3)cc2)cc(OC)c1 [Ex 739, N-(3,5-dimethoxyphenyl)-4-((5-(4-methyl-1-(3,3,3-trifluoro-2-hydroxy-2-(trifluoromethyl)propyl)-1H-indazol-5-yl)-2,6-naphthyridin-3-yl)amino)benzenesulfonamide]
IC50 (CDK2/CCNE1; [22]): 25 to 250 nM
IC50 (CDK6/CCND1; [19]): > 250 nM
IC50 (CDK4/CCND3; [23]): > 250 nM
IC50 (CDK1/CCNB1; [21]): > 250 nM

Cc1c(-c2nccc3cnc(Nc4ccc(S(=O)(=O)Nc5ccccc5N5CCOCC5)cc4)cc23)ccc2c1cnn2CC(O)(C(F)(F)F)C(F)(F)F [Ex 713, 4-((5-(4-methyl-1-(3,3,3-trifluoro-2-hydroxy-2-(trifluoromethyl)propyl)-1H-indazol-5-yl)-2,6-naphthyridin-3-yl)amino)-N-(2-morpholinophenyl)benzenesulfonamide]
IC50 (CDK2/CCNE1; [22]): 25 to 250 nM
IC50 (CDK6/CCND1; [19]): > 250 nM
IC50 (CDK4/CCND3; [23]): > 250 nM
IC50 (CDK1/CCNB1; [21]): > 250 nM

CS(=O)(=O)c1ccc(Nc2cc3c(C#Cc4c(F)cncc4F)nccc3cn2)cc1 [Ex 871, 5-((3,5-difluoropyridin-4-yl)ethynyl)-N-(4-(methylsulfonyl)phenyl)-2,6-naphthyridin-3-amine]
IC50 (CDK2/CCNE1; [22]): 25 to 250 nM
IC50 (CDK6/CCND1; [19]): > 250 nM
IC50 (CDK4/CCND3; [23]): > 250 nM
IC50 (CDK1/CCNB1; [21]): > 250 nM

Cc1c(-c2nccc3cnc(Nc4ccc(NS(=O)(=O)c5cccnc5)cc4)cc23)ccc2c1cnn2CC(C)(C)O [Ex 839, N-(4-((5-(1-(2-hydroxy-2-methylpropyl)-4-methyl-1H-indazol-5-yl)-2,6-naphthyridin-3-yl)amino)phenyl)pyridine-3-sulfonamide]
IC50 (CDK2/CCNE1; [18]): < 25 nM
IC50 (CDK6/CCND1; 25-250 nM, 1 mM ATP, read-out: CDK6/CCND IC50, 25-250 nM): 25 to 250 nM
IC50 (CDK4/CCND3; [20]): 25 to 250 nM
IC50 (CDK1/CCNB1; 25-250 nM, read-out: CDK1/CCNB IC50, 25-250 nM): 25 to 250 nM

CN1CCN(c2nccc3cnc(NC4CCN(S(C)(=O)=O)CC4)cc23)CC1 [Ex 29, 5-(4-methylpiperazin-1-yl)-N-(1-(methylsulfonyl)piperidin-4-yl)-2,6-naphthyridin-3-amine]
IC50 (CDK2/CCNE1; [1]): 25 to 250 nM
IC50 (CDK6/CCND1; [6]): < 25 nM
IC50 (CDK4/CCND3; [7]): < 25 nM
IC50 (CDK1/CCNB1; [4]): > 250 nM

COc1cc(S(=N)(=O)C2COC2)ccc1Nc1cc2c(C#Cc3ccc4c(c3)NC(=O)C43CC3)nccc2cn1 (single isomer, unassigned) [Ex 323, 6'-((7-((2-methoxy-4-(oxetane-3-sulfonimidoyl)phenyl)amino)-2,6-naphthyridin-1-yl)ethynyl)spiro[cyclopropane-1,3'-indolin]-2'-one]
IC50 (CDK2/CCNE1; [5]): < 25 nM
IC50 (CDK6/CCND1; [2]): > 250 nM
IC50 (CDK4/CCND3; [3]): > 250 nM
IC50 (CDK1/CCNB1; [4]): > 250 nM

Cc1c(-c2nccc3cnc(Nc4ccc(S(=O)(=O)Nc5nc(C(F)(F)F)cc(C(F)(F)F)n5)cc4)cc23)ccc2c1cnn2CC(C)(C)O [Example 789, N-(4,6-bis(trifluoromethyl)pyrimidin-2-yl)-4-((5-(1-(2-hydroxy-2-methylpropyl)-4-methyl-1H-indazol-5-yl)-2,6-naphthyridin-3yl)amino)benzenesulfonamide]
IC50 (CDK2/CCNE1; [22]): 25 to 250 nM
IC50 (CDK6/CCND1; [19]): > 250 nM
IC50 (CDK4/CCND3; [23]): > 250 nM
IC50 (CDK1/CCNB1; [21]): > 250 nM

Reference: patent US20260325533A1, “CDK INHIBITOR COMPOUNDS” (ALEKSIA THERAPEUTICS, INC., priority 2023, published 2026)
